From paper PMC5913645, “Methyl phenlactonoates are efficient strigolactone analogs with simple structure” (Journal of Experimental Botany, 2017)
“Also recorded” adds a separate entry of the source.

Experiments:
ShHTL7 = target: T1, ShHTL7 (Striga hermonthica, UniProt A0A0M3PNA2); assay: Intrinsic tryptophan fluorescence assay, ShHTL7; type: binding
T1 sequence (A0A0M3PNA2 1-271): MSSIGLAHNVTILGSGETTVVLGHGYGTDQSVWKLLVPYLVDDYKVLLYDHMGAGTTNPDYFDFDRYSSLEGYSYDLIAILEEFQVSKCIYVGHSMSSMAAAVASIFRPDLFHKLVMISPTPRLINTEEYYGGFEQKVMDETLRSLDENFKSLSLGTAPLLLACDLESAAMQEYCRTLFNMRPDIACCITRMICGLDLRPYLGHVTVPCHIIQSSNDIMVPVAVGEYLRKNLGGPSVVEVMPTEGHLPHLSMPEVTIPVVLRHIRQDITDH
Text: Striga hermonthica ShHTL7 cDNA was used, GenBank accession KR013127, kindly provided by Tsuyoshi Ota, The University of Tokyo, Japan. Arabidopsis D14 (AtD14) cDNA, GenBank accession AY097402, was synthesized and cloned into pUC57 (GenScript). ShHTL7 and OsD14 cDNAs were amplified by RT-PCR using the primers shown in Supplementary Table S2, digested with BamHI and XhoI, and ligated into BamHI/XhoI-digested pGEX-6P-1 expression vector (GE Healthcare). […] The plasmids were then transformed into E. coli BL21 (DE3) cells. The cells were grown in LB broth containing ampicillin ([…]), incubated at 37 °C until OD600 of 0.6 and induced with 0.1 mM isopropyl-β-D-thiogalactopyranoside at 16 °C for 16 h. Harvested cells were resuspended in lysis buffer: 50 mM Tris–HCl (pH 8.0), 200 mM NaCl, 0.5% Tween-20 and 2 mM dithiothreitol (DTT). After sonication on ice for 10 min, the lysate was centrifuged at 75 000 g for 30 min at 4 °C. Supernatant was allowed to bind to glutathione–sepharose beads (GE Healthcare) for 2 h at 4 °C, washed 3 times with buffer (50 mM Tris-HCl (pH 8.0), 200 mM NaCl, 2 mM DTT), and eluted by cleaving the GST moiety with PreScission™ Protease (GE Healthcare) at 4 °C overnight. […]

rice leaf segments = assay: Dark-induced leaf senescence; set-up: species or system O. sativa, var. Shiokari; conditions: for transcript level of senescence-associated gene Osl20 / transcript level of senescence-associated gene Osl295: after 5 d of treatment; for change in color of leaf segments, earlier than the control / chlorophyll content of leaf segments / ion leakage of leaf segments compared with the control: dark; for change in color of leaf segments, earlier than the control: 30 °C, change on the third day after treatment; for chlorophyll content of leaf segments: on the third day; for ion leakage of leaf segments compared with the control: sixth and seventh day, no difference in the first 5 d
Procedure: One-week-old rice (O. sativa, var. Shiokari) seedlings were established as mentioned above. Uniform seedlings were transferred to 50 ml tubes containing half-strength Hoagland nutrient solution for 7 d and grown in an incubator under white fluorescent light (130–180 μmol m^−2 s^−1) with 16 h/8 h (L/D) at 28 °C for 1 week. Leaf segments of 2 cm were cut from middle part of third leaves of rice plants. Each segment was put in a well (in 24-well plates) containing 2 ml of 2.5 mM MES buffer with 0.05% Tween-20, and incubated at 30 °C in the dark for 7 d. After application of MPs, color change, chlorophyll content, ion leakage, and gene expression were monitored daily for 7 d.

rice d3 mutant = assay: Rice micro tillering bioassay, d3 mutant; type: in vivo; conditions: 2.5 μM, hydroponic culture; average of four tillers per plant in treated and untreated samples
Procedure: Rice seeds (WT, d3, d10) were surface-sterilized by washing with 70% ethanol for 1 min and then with 2.5% sodium hypochlorite for 15 min. Seeds were then rinsed thoroughly with sterile MilliQ water and incubated in water for 2 d at 30 °C in the dark. Pre-germinated seeds were transferred to filter papers containing half-strength MS medium in 90 mm Petri dishes and incubated at 30 °C under fluorescent white light (130–180 μmol m^−2 s^−1) for 1 week. Seven-day-old seedlings were transferred to 50 ml falcon tubes (one seedling per tube) containing modified half-strength Hoagland nutrient solution and grown in greenhouse. Plants were treated with MPs at 2.5 μM to 2.5 × 10^–7 μM, using GR24 as positive control. The compounds were applied six times, twice a week. Number of tillers per plant, plant height and fresh biomass were measured at final harvest.

[1] = tested on: artificially infested soil and pearl millet as a host; assay: Trial in Burkina Faso, boxes with artificially infested soil; type: in vivo; conditions: 1 × 1 m^2 wooden boxes, to be published
Text: This activity was around 17 times weaker than that of GR24, pointing to MP1 as a suitable candidate for the suicidal germination approach. Very recently, we have evaluated the activity of MP1 in a trial conducted in Burkina Faso, in which we used 1 × 1 m^2 wooden boxes filled with artificially infested soil and pearl millet as a host. […] Apart from these three compounds, we observed lower germination activity with P. ramosa seeds than with those of S. hermonthica.

P. ramosa seeds = assay: P. ramosa seed germination bioassay; type: in vivo, Phelipanche ramosa; conditions: 1.0 μM
Procedure: Parasitic weed seeds’ (S. hermonthica and P. ramosa) germination activity was studied as described previously ([Jamil et al., 2012]). Six pre-conditioned seed discs were placed in a 90 mm Petri dish containing a filter paper ring wetted with 0.9 ml sterile MilliQ water. Then 50 μl of SL analog solution (10^–5–10^–12 M) was applied on each of the six discs, for each concentration. GR24 solutions with equal concentrations and sterile MilliQ water were included as a positive and negative control, respectively. After application, seeds of S. hermonthica and P. ramosa were incubated in dark at 30 °C for 2 d and at 25 °C for 4 d, respectively. Germination (seeds with radicle emerging through the seed coat) was scored under a binocular microscope, and germination rate (%) was calculated.

Arabidopsis seedlings = assay: Arabidopsis hypocotyl elongation assay; type: in vivo; conditions: 1.0 μM, continuous red light
Procedure: Sterilized Arabidopsis seeds were sown on half-strength MS (with 0.5% sucrose+1% agar, 0.5 g l^−1 MES, pH 5.7) plates supplemented with MPs or GR24 (at 1.0 μM). Plates were stored at 4 °C in darkness for 3 d. To initiate germination, plates were exposed to continuous white light for 24 h, then transferred to continuous monochromatic red light (20 μmol m^−2 s^−1, 22 °C) conditions for another 4 d. For hypocotyl length measurement, at least 30 seedlings were measured using the freely available ImageJ software (http://rsbweb.nih.gov/ij/) after taking digital photographs. A monochromatic red light source was applied as described previously ([Wu and Yang, 2010]). Light flow rates were measured using a Li250 quantum photometer (Li-Cor, Lincoln, NE, USA).

SMILES	Kd (ShHTL7)	transcript level of senescence-associated gene Osl20 (rice leaf segments)	transcript level of senescence-associated gene Osl295 (rice leaf segments)	change in color of leaf segments, earlier than the control (rice leaf segments)	chlorophyll content of leaf segments (rice leaf segments)	ion leakage of leaf segments compared with the control (rice leaf segments)	high-tillering phenotype of SL-insensitive d3 mutant (rice d3 mutant)	germination activity in soil box trial [1]	P. ramosa germination activity (P. ramosa seeds)	inhibition of hypocotyl growth (Arabidopsis seedlings)
CC1=CC(OC=C2C(=O)OC3c4ccccc4CC23)OC1=O (stereo not shown) [GR24, reference compound]	440 ± 210 nM	striking increase	striking increase	about 2 d	clear reduction	striking increase	neither MPs nor GR24 could restore the high-tillering phenotype	–	–	–
COC(=O)/C(=C/OC1C=C(C)C(=O)O1)c1ccc([N+](=O)[O-])cc1 (stereo not shown) [MP1, (E)-methyl 3-(4-methyl-5-oxo-2,5-dihydrofuran-2-yloxy)-2-(4-nitrophenyl)acrylate]	–	–	–	–	–	–	–	significantly higher germination activity than GR24	much higher activity; also recorded: quite similar to that of GR24	–
COC(=O)/C(=C/OC1C=C(C)C(=O)O1)c1ccccc1 (stereo not shown) [MP3, (E)-methyl 3-(4-methyl-5-oxo-2,5-dihydrofuran-2-yloxy)-2-phenylacrylate]	–	striking increase in their transcripts, which was more pronounced	striking increase in their transcripts, which was more pronounced	about 2 d	clear reduction	striking increase	–	–	–	–
COC(=O)/C(=C/OC1C=C(C)C(=O)O1)c1ccc(Cl)cc1 (stereo not shown) [MP7]	1150 ± 310 nM	–	–	–	–	–	–	–	–	stronger inhibitory effect than GR24
